Assay results from patent publication US20130005747A1, “METHOD FOR SELECTING A CANCER THERAPY” (Cyclacel Limited, priority 2010, published 2013).

Experiments:
Assay in all cases: Fractional growth, 72 h seliciclib
Format in all cases: cell-based, human
HCC38 = HCC38 (Breast), 15 μM seliciclib
Text: (§1) A total of 270 human cancer cell lines from diverse cancer histopathologic types were investigated.

EPLC-272H = EPLC-272H (Lung: NSCLC), 15 μM seliciclib
Text: as §1

AsPC-1 = AsPC-1 (Pancreas), 15 μM seliciclib
Text: as §1

BHY = BHY (Head & Neck), 15 μM seliciclib
Text: as §1

Panc 08.13 = Panc 08.13 (Pancreas), 15 μM seliciclib
Text: as §1

H2373 = H2373 (Lung), 15 μM seliciclib
Text: as §1

RVH-421 = RVH-421 (Skin), 15 μM seliciclib
Text: as §1

LU99A = LU99A (Lung: NSCLC), 15 μM seliciclib
Text: as §1

NCI-H1793 = NCI-H1793 (Lung: NSCLC), 15 μM seliciclib
Text: as §1

LU99B = LU99B (Lung: NSCLC), 15 μM seliciclib
Text: as §1

A549 = A549 (Lung: NSCLC), 15 μM seliciclib
Text: as §1

5637 = 5637 (Bladder), 15 μM seliciclib
Text: as §1

PCI-6B = PCI-6B (Head & Neck), 15 μM seliciclib
Text: as §1

IGROV-1 = IGROV-1 (Ovary), 15 μM seliciclib
Text: as §1

IGR-1 = IGR-1 (Skin), 15 μM seliciclib
Text: as §1

PCI-15B = PCI-15B (Head & Neck), 15 μM seliciclib
Text: as §1

T98G = T98G (Brain), 15 μM seliciclib
Text: as §1

NCI-H2085 = NCI-H2085 (Lung: NSCLC), 15 μM seliciclib
Text: as §1

CAL-12T = CAL-12T (Lung: NSCLC), 15 μM seliciclib
Text: as §1

MFM-223 = MFM-223 (Breast), 15 μM seliciclib
Text: as §1

KYSE-510 = KYSE-510 (Esophagus), 15 μM seliciclib
Text: as §1

HUP-T3 = HUP-T3 (Pancreas), 15 μM seliciclib
Text: as §1

MCF7 = MCF7 (Breast), 15 μM seliciclib
Text: as §1

SK-N-MC = SK-N-MC (Brain), 15 μM seliciclib
Text: as §1

A-204 = A-204 (Muscle), 15 μM seliciclib
Text: as §1

UM-UC-3 = UM-UC-3 (Bladder), 15 μM seliciclib
Text: as §1

NCI-H1915 = NCI-H1915 (Lung: NSCLC), 15 μM seliciclib
Text: as §1

HMCB = HMCB (Skin), 15 μM seliciclib
Text: as §1

YAPC = YAPC (Pancreas), 15 μM seliciclib
Text: as §1

NCI-H522 = NCI-H522 (Lung: NSCLC), 15 μM seliciclib
Text: as §1

SW 156 = SW 156 (Kidney), 15 μM seliciclib
Text: as §1

HT 1376 = HT 1376 (Bladder), 15 μM seliciclib
Text: as §1

KP-4 = KP-4 (Pancreas), 15 μM seliciclib
Text: as §1

TCCSUP = TCCSUP (Bladder), 15 μM seliciclib
Text: as §1

HTC-C3 = HTC-C3 (Thyroid), 15 μM seliciclib
Text: as §1

LUDLU-1 = LUDLU-1 (Lung: NSCLC), 15 μM seliciclib
Text: as §1

SW 900 = SW 900 (Lung: NSCLC), 15 μM seliciclib
Text: as §1

## CC[C@H](CO)Nc1nc(NCc2ccccc2)c2ncn(C(C)C)c2n1 [seliciclib, roscovitine]
HCC38
  Fractional Growth: 0.8297
EPLC-272H
  Fractional Growth: 0.6305
AsPC-1
  Fractional Growth: 0.6879
BHY
  Fractional Growth: 0.5602
Panc 08.13
  Fractional Growth: 0.4222
H2373
  Fractional Growth: 0.6168
RVH-421
  Fractional Growth: 0.4165
LU99A
  Fractional Growth: 0.0948
NCI-H1793
  Fractional Growth: 0.6274
LU99B
  Fractional Growth: 0.2318
A549
  Fractional Growth: 0.1925
5637
  Fractional Growth: 0.6151
PCI-6B
  Fractional Growth: 0.5328
IGROV-1
  Fractional Growth: 0.4776
IGR-1
  Fractional Growth: 0.5764
PCI-15B
  Fractional Growth: 0.2847
T98G
  Fractional Growth: 0.4404
NCI-H2085
  Fractional Growth: 0.4597
CAL-12T
  Fractional Growth: 0.3472
MFM-223
  Fractional Growth: 0.5683
KYSE-510
  Fractional Growth: 0.4141
HUP-T3
  Fractional Growth: 0.4333
MCF7
  Fractional Growth: 0.4137
SK-N-MC
  Fractional Growth: 0.283
A-204
  Fractional Growth: 0.2653
UM-UC-3
  Fractional Growth: 0.3538
NCI-H1915
  Fractional Growth: 0.4337
HMCB
  Fractional Growth: 0.161
YAPC
  Fractional Growth: 0.588
NCI-H522
  Fractional Growth: 0.6262
SW 156
  Fractional Growth: 0.467
HT 1376
  Fractional Growth: 0.6897
KP-4
  Fractional Growth: 0.5607
TCCSUP
  Fractional Growth: 0.6407
HTC-C3
  Fractional Growth: 0.3914
LUDLU-1
  Fractional Growth: 0.7029
SW 900
  Fractional Growth: 0.5842
